The target in one test is T1, human PTH-1 receptor (Homo sapiens, UniProt Q03431).
T1 construct: expressed in transfected cells; host or cells: HEK-293
T1 sequence (Q03431 27-593): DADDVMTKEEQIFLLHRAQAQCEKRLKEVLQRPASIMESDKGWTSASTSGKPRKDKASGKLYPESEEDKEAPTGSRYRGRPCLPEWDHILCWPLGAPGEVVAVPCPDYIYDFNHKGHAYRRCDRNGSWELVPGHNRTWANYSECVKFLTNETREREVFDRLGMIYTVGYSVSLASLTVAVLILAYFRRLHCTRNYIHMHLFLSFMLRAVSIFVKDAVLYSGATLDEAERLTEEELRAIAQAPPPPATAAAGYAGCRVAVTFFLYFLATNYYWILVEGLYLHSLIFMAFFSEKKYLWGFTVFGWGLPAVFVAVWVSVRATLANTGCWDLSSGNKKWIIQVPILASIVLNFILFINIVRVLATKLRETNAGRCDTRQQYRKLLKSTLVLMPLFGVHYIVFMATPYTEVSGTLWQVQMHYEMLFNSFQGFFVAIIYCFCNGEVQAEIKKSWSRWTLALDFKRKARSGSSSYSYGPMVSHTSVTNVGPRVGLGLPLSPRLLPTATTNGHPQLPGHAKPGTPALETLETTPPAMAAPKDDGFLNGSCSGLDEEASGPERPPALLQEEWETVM
Nature of the test: Reporter gene assay (CRE-luciferase) for agonist activity in transiently transfected HEK-293 cells. The note with it: for hPTHR-2/hPTHR-1: Table 3, ratio of EC50 values, selectivity for hPTH-1 receptor over hPTH-2 receptor. In kind it is cell-based. The procedure, abridged: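 HEK-293 cells transiently transfected with SV40-driven human PTH-1 receptor and CRE-luciferase reporter, exposed to serial compound dilutions for 4-5 h, then lysed for luciferase readout; efficacy and EC50 by non-linear regression, PTH (1-34) as internal control, n≥3. Selectivity measured in analogous human PTH-2 receptor luciferase reporter assays.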
For orientation: A reporter such as luciferase makes a cellular process visible.

For test [1], the target named is human parathyroid hormone receptor 1 (human, UniProt Q03431). Nature of the test: cell-based or functional assay.
Test [2] addresses human parathyroid hormone receptor 2 (human, UniProt P49190). Nature of the test: cell-based or functional assay.

Non-standard residues stand in square brackets, D forms with d. Residues, ends and D or L forms follow the SMILES beside them. No end group written: not given here. 1Nal = N[C@@H](Cc1cccc2ccccc12)C(=O)O; β3hI = CC[C@H](C)[C@H](N)CC(=O)O; Nle = CCCC[C@H](N)C(=O)O; Aib = CC(C)(N)C(=O)O; βAla = NCCC(=O)O

As for `CCCC[C@H](NC(=O)[C@H](CC(C)C)NC(=O)[C@H](CCC(N)=O)NC(=O)[C@@H](NC(=O)[C@H](CCC(=O)O)NC(=O)[C@H](CO)NC(=O)[C@@H](NC(=O)[C@@H](N)CO)C(C)C)[C@@H](C)CC)C(=O)N[C@@H](Cc1c[nH]cn1)C(=O)N[C@@H](CC(N)=O)C(=O)N[C@@H](CC(C)C)C(=O)NCC(=O)N[C@@H](CCCCN)C(=O)N[C@@H](Cc1c[nH]cn1)C(=O)N[C@@H](CC(C)C)C(=O)N[C@@H](CC(N)=O)C(=O)N[C@@H](CO)C(=O)N[C@H](CC(=O)N[C@@H](CCC(=O)O)C(=O)N[C@@H](CCCNC(=N)N)C(=O)N[C@H](C(=O)N[C@@H](CCC(=O)O)C(=O)N[C@@H](Cc1cccc2ccccc12)C(=O)N[C@@H](CC(C)C)C(=O)N[C@@H](CCCNC(=N)N)C(=O)N[C@@H](CCCCN)C(=O)N[C@@H](CC(C)C)C(=O)N[C@@H](CC(C)C)C(=O)N[C@@H](CCC(N)=O)C(=O)N[C@@H](CO)C(=O)N[C@H](C(=O)N[C@@H](Cc1c[nH]cn1)C(=O)N[C@@H](CC(N)=O)C(=O)N[C@@H](Cc1ccccc1)C(N)=O)C(C)C)C(C)C)[C@@H](C)CC` [SEQ ID NO: 26, [Nle^8, β-hIle^18,1-Nal^23, Leu^27, Ser^30] hPTH (1-34)-NH2] (H-SVSEIQL[Nle]HNLGKHLNS[β3hI]ERVE[1Nal]LRKLLQSVHNF-NH2), at human PTH-1 receptor, the EC50 (as a rule, the concentration giving half of the maximal effect) stood at 0.19 nM and the hPTHR-2/hPTHR-1 is recorded as 98. On to `CCCC[C@H](NC(=O)[C@H](CC(C)C)NC(=O)[C@H](CCC(N)=O)NC(=O)[C@@H](NC(=O)[C@H](CCC(=O)O)NC(=O)[C@H](CO)NC(=O)[C@@H](NC(=O)[C@@H](N)CO)C(C)C)[C@@H](C)CC)C(=O)N[C@@H](Cc1c[nH]cn1)C(=O)N[C@@H](CC(N)=O)C(=O)N[C@@H](CC(C)C)C(=O)NC(C)(C)C(=O)NC(C)(C)C(=O)N[C@@H](Cc1c[nH]cn1)C(=O)N[C@@H](CC(C)C)C(=O)N[C@@H](CC(N)=O)C(=O)N[C@@H](CO)C(=O)N[C@H](CC(=O)N[C@@H](CCC(=O)O)C(=O)N[C@@H](CCCNC(=N)N)C(=O)N[C@H](C(=O)N[C@@H](CCC(=O)O)C(=O)N[C@@H](Cc1cccc2ccccc12)C(=O)N[C@@H](CC(C)C)C(=O)N[C@@H](CCCNC(=N)N)C(=O)N[C@@H](CCCCN)C(=O)N[C@@H](CC(C)C)C(=O)N[C@@H](CC(C)C)C(=O)N[C@@H](CCC(N)=O)C(=O)N[C@@H](CC(=O)O)C(=O)N[C@H](C(=O)N[C@@H](Cc1c[nH]cn1)C(=O)N[C@@H](CC(N)=O)C(=O)N[C@@H](Cc1ccccc1)C(N)=O)C(C)C)C(C)C)[C@@H](C)CC` [SEQ ID NO: 31, [Nle^8, Aib^12,13, β-hIle^18,1-Nal^23, Leu^27] hPTH (1-34)-NH2] (H-SVSEIQL[Nle]HNL[Aib][Aib]HLNS[β3hI]ERVE[1Nal]LRKLLQDVHNF-NH2; N-terminus assumed), for which, on human PTH-1 receptor, the EC50 was determined as 0.25 nM and the hPTHR-2/hPTHR-1 is on record as 138.

Take `CCCC[C@H](NC(=O)[C@H](CC(C)C)NC(=O)[C@H](CCC(N)=O)NC(=O)[C@@H](NC(=O)[C@H](CCC(=O)O)NC(=O)[C@H](CO)NC(=O)[C@@H](NC(=O)[C@@H](N)CO)C(C)C)[C@@H](C)CC)C(=O)N[C@@H](Cc1c[nH]cn1)C(=O)N[C@@H](CC(N)=O)C(=O)N[C@@H](CC(C)C)C(=O)NCC(=O)NC(C)(C)C(=O)N[C@@H](Cc1c[nH]cn1)C(=O)N[C@@H](CC(C)C)C(=O)N[C@@H](CC(N)=O)C(=O)N[C@@H](CO)C(=O)N[C@H](CC(=O)N[C@@H](CCC(=O)O)C(=O)N[C@@H](CCCNC(=N)N)C(=O)N[C@H](C(=O)N[C@@H](CCC(=O)O)C(=O)N[C@@H](Cc1cccc2ccccc12)C(=O)N[C@@H](CC(C)C)C(=O)N[C@@H](CCCNC(=N)N)C(=O)N[C@@H](CCCCN)C(=O)N[C@@H](CC(C)C)C(=O)N[C@@H](CC(C)C)C(=O)N[C@@H](CCC(N)=O)C(=O)N[C@@H](CC(=O)O)C(=O)N[C@H](C(=O)N[C@@H](Cc1c[nH]cn1)C(=O)N[C@@H](CC(N)=O)C(=O)N[C@@H](Cc1ccccc1)C(N)=O)C(C)C)C(C)C)[C@@H](C)CC` [SEQ ID NO: 33, [Nle^8, Aib^13, β-hIle^18,1-Nal^23, Leu^27] hPTH (1-34)-NH2] (H-SVSEIQL[Nle]HNLG[Aib]HLNS[β3hI]ERVE[1Nal]LRKLLQDVHNF-NH2): at human PTH-1 receptor, the EC50 worked out at 0.14 nM and the hPTHR-2/hPTHR-1 was 481.

As for `CCCC[C@H](NC(=O)[C@H](CC(C)C)NC(=O)[C@H](CCC(N)=O)NC(=O)[C@@H](NC(=O)[C@H](CCC(=O)O)NC(=O)[C@H](CO)NC(=O)[C@@H](NC(=O)[C@@H](N)CO)C(C)C)[C@@H](C)CC)C(=O)N[C@@H](Cc1c[nH]cn1)C(=O)N[C@@H](CC(N)=O)C(=O)N[C@@H](CC(C)C)C(=O)NCC(=O)N[C@@H](CCCCN)C(=O)N[C@@H](Cc1c[nH]cn1)C(=O)N[C@@H](CC(C)C)C(=O)N[C@@H](CCCCN)C(=O)N[C@@H](CO)C(=O)N[C@H](CC(=O)N[C@@H](CCC(=O)O)C(=O)N[C@@H](CCCNC(=N)N)C(=O)N[C@H](C(=O)N[C@@H](CCC(=O)O)C(=O)N[C@@H](Cc1cccc2ccccc12)C(=O)N[C@@H](CC(C)C)C(=O)N[C@@H](CCCNC(=N)N)C(=O)N[C@@H](CCCCN)C(=O)N[C@@H](CC(C)C)C(=O)N[C@@H](CC(C)C)C(=O)N[C@@H](CCC(N)=O)C(=O)N[C@@H](CC(=O)O)C(=O)N[C@H](C(=O)N[C@@H](Cc1c[nH]cn1)C(=O)N[C@@H](CC(N)=O)C(=O)N[C@@H](Cc1ccccc1)C(N)=O)C(C)C)C(C)C)[C@@H](C)CC` [SEQ ID NO: 34, [Nle^8, Lys^16, β-hIle^18,1-Nal^23, Leu^27] hPTH (1-34)-NH2] (H-SVSEIQL[Nle]HNLGKHLKS[β3hI]ERVE[1Nal]LRKLLQDVHNF-NH2; N-terminus assumed), at human PTH-1 receptor, a half-maximal effect (EC50) was put at 0.08 nM and the hPTHR-2/hPTHR-1 worked out at 373. In the case of `CCCC[C@H](NC(=O)[C@H](CC(C)C)NC(=O)[C@H](CCC(N)=O)NC(=O)[C@@H](NC(=O)[C@H](CCC(=O)O)NC(=O)[C@H](CO)NC(=O)[C@@H](NC(=O)[C@@H](N)CO)C(C)C)[C@@H](C)CC)C(=O)N[C@@H](Cc1c[nH]cn1)C(=O)N[C@@H](CC(N)=O)C(=O)N[C@@H](CC(C)C)C(=O)NCC(=O)N[C@@H](CCCCN)C(=O)N[C@@H](Cc1c[nH]cn1)C(=O)N[C@@H](CC(C)C)C(=O)N[C@@H](CCC(=O)O)C(=O)N[C@@H](CO)C(=O)N[C@H](CC(=O)N[C@@H](CCC(=O)O)C(=O)N[C@@H](CCCNC(=N)N)C(=O)N[C@H](C(=O)N[C@@H](CCC(=O)O)C(=O)N[C@@H](Cc1cccc2ccccc12)C(=O)N[C@@H](CC(C)C)C(=O)N[C@@H](CCCNC(=N)N)C(=O)N[C@@H](CCCCN)C(=O)N[C@@H](CC(C)C)C(=O)N[C@@H](CC(C)C)C(=O)N[C@@H](CCC(N)=O)C(=O)N[C@@H](CC(=O)O)C(=O)N[C@H](C(=O)N[C@@H](Cc1c[nH]cn1)C(=O)N[C@@H](CC(N)=O)C(=O)N[C@@H](Cc1ccccc1)C(N)=O)C(C)C)C(C)C)[C@@H](C)CC` [SEQ ID NO: 21, [Nle^8, Glu^16, β-hIle^18,1-Nal^23, Leu^27] hPTH (1-34)-NH2] (H-SVSEIQL[Nle]HNLGKHLES[β3hI]ERVE[1Nal]LRKLLQDVHNF-NH2), at human PTH-1 receptor, the hPTHR-2/hPTHR-1 is given as 234. As to `CCCC[C@H](NC(=O)CCNC(=O)[C@H](CC(N)=O)NC(=O)[C@H](CC(C)C)NC(=O)[C@H](Cc1c[nH]cn1)NC(=O)[C@H](CCCCN)NC(=O)CNC(=O)[C@H](CC(C)C)NC(=O)[C@H](CC(N)=O)NC(=O)[C@H](Cc1c[nH]cn1)NC(=O)[C@H](CCCC)NC(=O)[C@H](CC(C)C)NC(=O)[C@H](CCC(N)=O)NC(=O)[C@@H](NC(=O)[C@H](CCC(=O)O)NC(=O)[C@H](CO)NC(=O)[C@@H](NC(=O)[C@@H](N)CO)C(C)C)[C@@H](C)CC)C(=O)N[C@@H](CCC(=O)O)C(=O)N[C@@H](CCCNC(=N)N)C(=O)N[C@H](C(=O)N[C@@H](CCC(=O)O)C(=O)N[C@@H](Cc1cccc2ccccc12)C(=O)N[C@@H](CC(C)C)C(=O)N[C@@H](CCCNC(=N)N)C(=O)N[C@@H](CCCCN)C(=O)N[C@@H](CC(C)C)C(=O)N[C@@H](CC(C)C)C(=O)N[C@@H](CCC(N)=O)C(=O)N[C@@H](CC(=O)O)C(=O)N[C@H](C(=O)N[C@@H](Cc1c[nH]cn1)C(=O)N[C@@H](CC(N)=O)C(=O)N[C@@H](Cc1ccccc1)C(N)=O)C(C)C)C(C)C` [SEQ ID NO: 15, [Nle^8,18, β-Ala^17,1-Nal^23, Leu^27] hPTH (1-34)-NH2] (H-SVSEIQL[Nle]HNLGKHLN[βAla][Nle]ERVE[1Nal]LRKLLQDVHNF-NH2), on human PTH-1 receptor, the EC50 was determined as 0.12 nM and the hPTHR-2/hPTHR-1 is 389. [Aib]VSEIQL[Nle]HELGKHLKS[β3hI]ERVE[1Nal]LRKLLQEVHEK-NH2 [[Aib^1, Nle^8, Glu^10, Lys^16, β-hIle^18, 1-Nal^23, Leu^27, Glu^30, Glu^33, Lys^34] hPTH(1-34)-NH2]: the “hPTHR-1 EC50 (nM), CRE-luciferase reporter gene assay” value (from here on “hPTHR-1 EC50 (nM)”) in test [1] turned out to be 0.04 nM. Also, the “hPTHR-2 EC50 (nM), luciferase reporter gene assay” value (from here on “hPTHR-2 EC50 (nM)”) in test [2] was found to be 1 nM. In the case of [Aib]VSEIQL[Nle]HNLGKHLNS[β3hI]ERVE[1Nal]LRKLLQDV-NH2 [[Aib^1, Nle^8, β-hIle^18, 1-Nal^23, Leu^27] hPTH (1-31)-NH2], in test [1], the “hPTHR-1 EC50 (nM)” value is 0.05 nM. Further, the “hPTHR-2 EC50 (nM)” value in test [2] is 18 nM. With SVSEIQL[Nle]HNLGKHLNS[β3hI]ERVE[1Nal]LRKLLQDV-NH2 [[Nle^8, β-hIle^18, 1-Nal^23, Leu^27] hPTH-(1-31)-NH2], in test [1], the “hPTHR-1 EC50 (nM)” value amounted to 0.09 nM. In test [2], the “hPTHR-2 EC50 (nM)” value turned out to be 32 nM.

These data come from patent US20110195900A1, “PEPTIDIC PTH RECEPTOR AGONISTS” (FERRING B.V., priority 2008, published 2011).
